Columns and labels:
Format in all cases: in vivo
[1] = system: barnyardgrass (Echinochloa crus-galli); test: Test A preemergence; conditions: Preemergence, 1000 g ai/ha; 0 is no effect, 100 is complete control
How it was run: (§1)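 Seeds sprayed preemergence with a directed soil spray, or plants at 2 to 10 cm height and one- to two-leaf stage sprayed postemergence, with test chemicals in a non-phytotoxic solvent mixture containing surfactant, in loam soil–sand blend. Injury rated visually against untreated controls after about 10 d in greenhouse, 0 (no effect) to 100 (complete control).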

[2] = system: wheat (Triticum aestivum); test: Test A preemergence; conditions: Preemergence, 1000 g ai/ha; 0 is no effect, 100 is complete control
How it was run: as §1

[3] = system: morningglory (Ipomoea spp.); test: Test A preemergence; conditions: Preemergence, 1000 g ai/ha; 0 is no effect, 100 is complete control
How it was run: as §1

[4] = system: crabgrass, large (Digitaria sanguinalis); test: Test A preemergence; conditions: Preemergence, 1000 g ai/ha; 0 is no effect, 100 is complete control
How it was run: as §1

[5] = system: corn (Zea mays); test: Test A preemergence; conditions: Preemergence, 1000 g ai/ha; 0 is no effect, 100 is complete control
How it was run: as §1

[6] = system: giant foxtail (Setaria faberii); test: Test A preemergence; conditions: Preemergence, 1000 g ai/ha; 0 is no effect, 100 is complete control
How it was run: as §1

[7] = system: pigweed (Amaranthus retroflexus); test: Test A preemergence; conditions: Preemergence, 1000 g ai/ha; 0 is no effect, 100 is complete control
[8] = system: velvetleaf (Abutilon theophrasti); test: Test A preemergence; conditions: Preemergence, 1000 g ai/ha; 0 is no effect, 100 is complete control
How it was run: as §1

[9] = system: barnyardgrass (Echinochloa crus-galli); test: Test A postemergence; conditions: 1000 g ai/ha, postemergence; 0 to 100 scale, 0 no effect, 100 complete control
How it was run: as §1

[10] = system: wheat (Triticum aestivum); test: Test A postemergence; conditions: 1000 g ai/ha, postemergence; 0 to 100 scale, 0 no effect, 100 complete control
How it was run: as §1

[11] = system: morningglory (Ipomoea spp.); test: Test A postemergence; conditions: 1000 g ai/ha, postemergence; 0 to 100 scale, 0 no effect, 100 complete control
How it was run: as §1

[12] = system: crabgrass, large (Digitaria sanguinalis); test: Test A postemergence; conditions: 1000 g ai/ha, postemergence; 0 to 100 scale, 0 no effect, 100 complete control
How it was run: as §1

[13] = system: corn (Zea mays); test: Test A postemergence; conditions: 1000 g ai/ha, postemergence; 0 to 100 scale, 0 no effect, 100 complete control
How it was run: as §1

[14] = system: giant foxtail (Setaria faberii); test: Test A postemergence; conditions: 1000 g ai/ha, postemergence; 0 to 100 scale, 0 no effect, 100 complete control
How it was run: as §1

[15] = system: pigweed (Amaranthus retroflexus); test: Test A postemergence; conditions: 1000 g ai/ha, postemergence; 0 to 100 scale, 0 no effect, 100 complete control
How it was run: as §1

[16] = system: velvetleaf (Abutilon theophrasti); test: Test A postemergence; conditions: 1000 g ai/ha, postemergence; 0 to 100 scale, 0 no effect, 100 complete control
How it was run: as §1

Cc1cccc(NC(=O)C2C(=O)NCC2c2ccc(F)c(F)c2)c1N (racemic) [Compound 355]
0: Barnyardgrass plant response rating (0 to 100 scale) [1] | Wheat plant response rating (0 to 100 scale) [2] | Morningglory plant response rating (0 to 100 scale) [3] | Crabgrass, Large plant response rating (0 to 100 scale) [4] | Corn plant response rating (0 to 100 scale) [5] | Foxtail, Giant plant response rating (0 to 100 scale) [6] | Pigweed plant response rating (0 to 100 scale) [7] | Velvetleaf plant response rating (0 to 100 scale) [8] | Plant response rating, Barnyardgrass [9] | Plant response rating, Wheat [10] | Plant response rating, Morningglory [11] | Plant response rating, Crabgrass, Large [12] | Plant response rating, Corn [13] | Plant response rating, Foxtail, Giant [14] | Plant response rating, Pigweed [15] | Plant response rating, Velvetleaf [16]

Nc1c(NC(=O)C2C(=O)NCC2c2ccc(F)c(F)c2)cccc1[N+](=O)[O-] (racemic) [Compound 357]
0: Barnyardgrass plant response rating (0 to 100 scale) [1] | Wheat plant response rating (0 to 100 scale) [2] | Morningglory plant response rating (0 to 100 scale) [3] | Crabgrass, Large plant response rating (0 to 100 scale) [4] | Corn plant response rating (0 to 100 scale) [5] | Foxtail, Giant plant response rating (0 to 100 scale) [6] | Pigweed plant response rating (0 to 100 scale) [7] | Velvetleaf plant response rating (0 to 100 scale) [8] | Plant response rating, Barnyardgrass [9] | Plant response rating, Wheat [10] | Plant response rating, Morningglory [11] | Plant response rating, Crabgrass, Large [12] | Plant response rating, Corn [13] | Plant response rating, Foxtail, Giant [14] | Plant response rating, Pigweed [15] | Plant response rating, Velvetleaf [16]

— patent publication US12077503B2, “Substituted cyclic amides and their use as herbicides” (FMC CORPORATION, priority 2015, dated 2024)
